Tests used:
Conditions in all cases: 100 micromolar inhibitor concentration; 100 is no change
MKK2 = MKK2 (Homo sapiens, UniProt P36507); experiment: Kinase profiling MKK2; type: biochemical
Description: (§1) Any value less that 25 is considered to be highly significant inhibition.

MKK6 = target: T1, MKK6 (Homo sapiens, UniProt P52564); experiment: Kinase profiling MKK6; type: biochemical
T1 sequence (P52564 1-334): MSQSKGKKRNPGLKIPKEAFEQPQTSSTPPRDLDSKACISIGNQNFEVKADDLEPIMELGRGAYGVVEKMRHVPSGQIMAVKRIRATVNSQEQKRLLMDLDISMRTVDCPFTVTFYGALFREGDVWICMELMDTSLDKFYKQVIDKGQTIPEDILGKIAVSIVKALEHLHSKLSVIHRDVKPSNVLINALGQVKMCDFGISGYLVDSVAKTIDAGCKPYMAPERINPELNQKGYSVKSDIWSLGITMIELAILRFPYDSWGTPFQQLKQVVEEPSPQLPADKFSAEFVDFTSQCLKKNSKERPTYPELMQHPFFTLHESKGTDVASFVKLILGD
Description: as §1

JNK1 = JNK1 (Homo sapiens, UniProt P45983); experiment: Kinase profiling JNK1; type: biochemical
Description: as §1

p38b MAPK = p38b MAPK (Homo sapiens, UniProt Q15759); experiment: Kinase profiling p38b MAPK; type: biochemical
Description: as §1

RSK1 = RSK1 (Homo sapiens, UniProt Q15418); experiment: Kinase profiling RSK1; type: biochemical
Description: as §1

PDK1 = target: T2, PDK1 (Homo sapiens, UniProt O15530); experiment: Kinase profiling PDK1; type: biochemical
T2 sequence (O15530 1-556): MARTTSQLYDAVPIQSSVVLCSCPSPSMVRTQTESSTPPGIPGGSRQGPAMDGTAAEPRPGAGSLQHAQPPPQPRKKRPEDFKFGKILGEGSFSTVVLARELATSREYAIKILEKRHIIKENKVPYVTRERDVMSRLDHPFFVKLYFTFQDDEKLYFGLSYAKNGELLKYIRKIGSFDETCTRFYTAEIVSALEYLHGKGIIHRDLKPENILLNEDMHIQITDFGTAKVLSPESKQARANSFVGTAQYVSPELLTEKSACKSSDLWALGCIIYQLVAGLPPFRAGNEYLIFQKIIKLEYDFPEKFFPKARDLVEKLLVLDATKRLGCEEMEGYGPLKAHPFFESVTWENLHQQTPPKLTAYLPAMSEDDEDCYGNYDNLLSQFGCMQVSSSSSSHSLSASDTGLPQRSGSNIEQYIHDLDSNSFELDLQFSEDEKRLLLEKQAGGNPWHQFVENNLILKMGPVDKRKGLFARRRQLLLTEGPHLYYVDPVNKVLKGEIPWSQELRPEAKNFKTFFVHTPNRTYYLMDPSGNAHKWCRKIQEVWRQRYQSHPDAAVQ
Description: as §1

PKBa = PKBa (Homo sapiens, UniProt P31749); experiment: Kinase profiling PKBa; type: biochemical
Description: as §1

S6K1 = S6K1 (Homo sapiens, UniProt P23443); experiment: Kinase profiling S6K1; type: biochemical
Description: as §1

PKA = PKA (Homo sapiens, UniProt P17612); experiment: Kinase profiling PKA; type: biochemical
Description: as §1

ROCK 2 = ROCK 2 (Homo sapiens, UniProt O75116); experiment: Kinase profiling ROCK 2; type: biochemical
Description: as §1

PRK2 = PRK2 (Homo sapiens, UniProt Q16513); experiment: Kinase profiling PRK2; type: biochemical
Description: as §1

PKCa = PKCa (Homo sapiens, UniProt P17252); experiment: Kinase profiling PKCa; type: biochemical
Description: as §1

CAMKKb = CAMKKb (Homo sapiens, UniProt Q96RR4); experiment: Kinase profiling CAMKKb; type: biochemical
Description: as §1

PLK1 = PLK1 (Homo sapiens, UniProt P53350); experiment: Kinase profiling PLK1; type: biochemical
Description: as §1

AMPK (hum) = experiment: Kinase profiling AMPK (hum); type: biochemical, human
Description: as §1

MELK = MELK (Homo sapiens, UniProt Q14680); experiment: Kinase profiling MELK; type: biochemical
Description: as §1

PIM1 = PIM1 (Homo sapiens, UniProt P11309); experiment: Kinase profiling PIM1; type: biochemical
Description: as §1

RIPK2 = RIPK2 (Homo sapiens, UniProt O43353); experiment: Kinase profiling RIPK2; type: biochemical
Description: as §1

BTK = BTK (Homo sapiens, UniProt Q06187); experiment: Kinase profiling BTK; type: biochemical
Description: as §1

EPH-A2 = EPH-A2 (Homo sapiens, UniProt P29317); experiment: Kinase profiling EPH-A2; type: biochemical
Description: as §1

HER4 = HER4 (Homo sapiens, UniProt Q15303); experiment: Kinase profiling HER4; type: biochemical
Description: as §1

IGF-1R = IGF-1R (Homo sapiens, UniProt P08069); experiment: Kinase profiling IGF-1R; type: biochemical
Description: as §1

Sequence of ROCK 2 (O75116 whole entry, species assumed): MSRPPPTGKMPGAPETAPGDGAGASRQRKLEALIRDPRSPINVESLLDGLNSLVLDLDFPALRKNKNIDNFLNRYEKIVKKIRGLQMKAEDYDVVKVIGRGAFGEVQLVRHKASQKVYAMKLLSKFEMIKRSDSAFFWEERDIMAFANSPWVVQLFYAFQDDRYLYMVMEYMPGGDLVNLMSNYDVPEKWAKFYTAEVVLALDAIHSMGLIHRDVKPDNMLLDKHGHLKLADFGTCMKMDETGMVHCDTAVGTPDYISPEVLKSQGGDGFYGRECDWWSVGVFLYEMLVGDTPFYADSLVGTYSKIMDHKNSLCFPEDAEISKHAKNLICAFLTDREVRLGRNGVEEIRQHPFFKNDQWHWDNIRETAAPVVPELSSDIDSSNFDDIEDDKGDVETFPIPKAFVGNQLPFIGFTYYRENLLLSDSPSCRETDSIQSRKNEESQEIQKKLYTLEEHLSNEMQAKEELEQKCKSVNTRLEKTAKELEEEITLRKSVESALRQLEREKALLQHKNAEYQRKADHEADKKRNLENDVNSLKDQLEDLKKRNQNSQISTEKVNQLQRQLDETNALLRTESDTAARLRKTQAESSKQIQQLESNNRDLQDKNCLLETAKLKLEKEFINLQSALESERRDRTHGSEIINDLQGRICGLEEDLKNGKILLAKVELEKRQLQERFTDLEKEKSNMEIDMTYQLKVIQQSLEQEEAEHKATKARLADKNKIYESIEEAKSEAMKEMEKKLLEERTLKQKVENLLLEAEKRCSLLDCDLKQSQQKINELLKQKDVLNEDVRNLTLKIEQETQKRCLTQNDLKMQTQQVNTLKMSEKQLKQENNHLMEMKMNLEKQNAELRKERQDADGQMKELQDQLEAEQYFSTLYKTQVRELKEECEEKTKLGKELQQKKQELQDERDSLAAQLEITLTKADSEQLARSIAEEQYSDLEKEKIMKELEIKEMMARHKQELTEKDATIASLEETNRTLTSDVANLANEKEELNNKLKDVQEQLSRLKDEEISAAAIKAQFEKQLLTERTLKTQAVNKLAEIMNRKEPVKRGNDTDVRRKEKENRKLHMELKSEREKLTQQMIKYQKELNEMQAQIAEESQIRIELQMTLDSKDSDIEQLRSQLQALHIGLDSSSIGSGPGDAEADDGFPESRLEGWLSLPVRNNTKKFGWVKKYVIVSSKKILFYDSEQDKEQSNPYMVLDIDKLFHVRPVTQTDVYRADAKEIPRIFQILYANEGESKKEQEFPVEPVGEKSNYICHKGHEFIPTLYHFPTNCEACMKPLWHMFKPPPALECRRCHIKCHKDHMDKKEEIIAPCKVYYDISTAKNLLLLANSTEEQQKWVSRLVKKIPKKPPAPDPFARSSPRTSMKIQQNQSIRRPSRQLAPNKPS
Sequence of JNK1 (P45983 whole entry, species assumed): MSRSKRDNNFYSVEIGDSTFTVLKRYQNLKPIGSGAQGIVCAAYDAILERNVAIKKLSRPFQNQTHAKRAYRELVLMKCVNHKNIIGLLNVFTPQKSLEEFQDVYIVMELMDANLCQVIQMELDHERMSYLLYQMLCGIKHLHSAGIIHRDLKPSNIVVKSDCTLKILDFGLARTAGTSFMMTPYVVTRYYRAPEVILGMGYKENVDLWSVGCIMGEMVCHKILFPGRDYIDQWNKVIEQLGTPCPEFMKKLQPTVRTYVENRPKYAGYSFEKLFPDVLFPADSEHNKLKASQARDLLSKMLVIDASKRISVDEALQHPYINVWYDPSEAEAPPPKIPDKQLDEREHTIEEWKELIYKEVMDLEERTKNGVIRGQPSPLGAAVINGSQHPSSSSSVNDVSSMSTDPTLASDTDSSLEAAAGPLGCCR
Sequence of RSK1 (Q15418 whole entry, species assumed): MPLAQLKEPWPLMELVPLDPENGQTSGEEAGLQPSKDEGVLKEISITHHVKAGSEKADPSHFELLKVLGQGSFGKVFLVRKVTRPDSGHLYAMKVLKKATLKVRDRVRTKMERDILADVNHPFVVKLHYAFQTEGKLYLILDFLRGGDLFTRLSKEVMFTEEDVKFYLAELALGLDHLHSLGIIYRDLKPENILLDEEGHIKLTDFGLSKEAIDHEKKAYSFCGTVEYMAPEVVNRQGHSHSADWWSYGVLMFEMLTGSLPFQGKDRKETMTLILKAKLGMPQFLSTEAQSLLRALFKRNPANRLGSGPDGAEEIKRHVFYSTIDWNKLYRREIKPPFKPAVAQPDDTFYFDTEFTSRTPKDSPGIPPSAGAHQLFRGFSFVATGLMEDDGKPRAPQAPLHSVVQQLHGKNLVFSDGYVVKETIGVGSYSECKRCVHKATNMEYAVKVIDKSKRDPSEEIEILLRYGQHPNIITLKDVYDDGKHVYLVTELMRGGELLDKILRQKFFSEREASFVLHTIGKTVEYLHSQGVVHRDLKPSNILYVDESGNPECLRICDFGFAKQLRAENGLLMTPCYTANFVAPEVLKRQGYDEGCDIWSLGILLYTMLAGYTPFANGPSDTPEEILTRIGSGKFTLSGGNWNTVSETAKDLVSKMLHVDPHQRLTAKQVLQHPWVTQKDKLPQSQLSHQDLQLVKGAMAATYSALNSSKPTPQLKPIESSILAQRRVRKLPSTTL
Sequence of BTK (Q06187 whole entry, species assumed): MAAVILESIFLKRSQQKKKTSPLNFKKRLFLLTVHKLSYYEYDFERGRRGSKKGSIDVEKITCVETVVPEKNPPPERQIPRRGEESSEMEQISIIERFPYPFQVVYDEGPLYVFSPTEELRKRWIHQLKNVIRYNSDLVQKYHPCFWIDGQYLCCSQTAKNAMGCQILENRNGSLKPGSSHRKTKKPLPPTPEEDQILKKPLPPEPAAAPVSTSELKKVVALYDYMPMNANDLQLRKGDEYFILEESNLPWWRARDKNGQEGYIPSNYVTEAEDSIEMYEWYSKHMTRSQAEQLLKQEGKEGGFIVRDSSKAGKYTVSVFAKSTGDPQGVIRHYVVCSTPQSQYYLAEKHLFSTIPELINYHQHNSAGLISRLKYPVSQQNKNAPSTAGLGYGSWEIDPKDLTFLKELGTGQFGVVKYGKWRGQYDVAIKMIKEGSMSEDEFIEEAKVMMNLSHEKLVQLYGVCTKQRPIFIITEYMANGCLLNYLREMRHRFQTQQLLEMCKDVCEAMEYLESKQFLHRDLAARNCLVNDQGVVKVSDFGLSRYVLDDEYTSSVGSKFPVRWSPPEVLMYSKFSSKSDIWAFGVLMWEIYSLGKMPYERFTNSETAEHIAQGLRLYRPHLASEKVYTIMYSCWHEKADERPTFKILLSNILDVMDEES
Sequence of PRK2 (Q16513 whole entry, species assumed): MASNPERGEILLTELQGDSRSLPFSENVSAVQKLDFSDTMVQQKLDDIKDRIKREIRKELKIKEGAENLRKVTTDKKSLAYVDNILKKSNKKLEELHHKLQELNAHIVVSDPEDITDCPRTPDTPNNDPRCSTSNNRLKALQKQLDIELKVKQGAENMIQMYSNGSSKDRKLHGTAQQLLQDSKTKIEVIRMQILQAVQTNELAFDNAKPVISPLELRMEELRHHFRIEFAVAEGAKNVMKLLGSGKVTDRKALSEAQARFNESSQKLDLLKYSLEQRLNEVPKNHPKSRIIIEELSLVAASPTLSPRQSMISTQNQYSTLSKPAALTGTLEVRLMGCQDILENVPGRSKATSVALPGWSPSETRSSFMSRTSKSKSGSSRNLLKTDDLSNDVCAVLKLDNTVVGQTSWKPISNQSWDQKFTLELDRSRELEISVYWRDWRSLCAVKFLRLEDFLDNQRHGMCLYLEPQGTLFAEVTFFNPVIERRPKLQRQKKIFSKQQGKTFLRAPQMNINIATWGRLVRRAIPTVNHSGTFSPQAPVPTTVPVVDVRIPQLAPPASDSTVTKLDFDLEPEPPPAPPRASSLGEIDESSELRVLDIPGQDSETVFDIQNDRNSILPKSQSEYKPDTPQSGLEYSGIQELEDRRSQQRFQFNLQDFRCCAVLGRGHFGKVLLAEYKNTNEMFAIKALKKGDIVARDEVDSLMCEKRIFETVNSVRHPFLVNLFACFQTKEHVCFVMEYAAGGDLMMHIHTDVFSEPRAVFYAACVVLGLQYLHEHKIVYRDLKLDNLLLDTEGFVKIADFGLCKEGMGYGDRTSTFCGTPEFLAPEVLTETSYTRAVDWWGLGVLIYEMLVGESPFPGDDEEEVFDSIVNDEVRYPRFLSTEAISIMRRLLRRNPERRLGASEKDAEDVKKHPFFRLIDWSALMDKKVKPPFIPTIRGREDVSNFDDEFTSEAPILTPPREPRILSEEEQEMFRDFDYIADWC
Sequence of MKK2 (P36507 whole entry, species assumed): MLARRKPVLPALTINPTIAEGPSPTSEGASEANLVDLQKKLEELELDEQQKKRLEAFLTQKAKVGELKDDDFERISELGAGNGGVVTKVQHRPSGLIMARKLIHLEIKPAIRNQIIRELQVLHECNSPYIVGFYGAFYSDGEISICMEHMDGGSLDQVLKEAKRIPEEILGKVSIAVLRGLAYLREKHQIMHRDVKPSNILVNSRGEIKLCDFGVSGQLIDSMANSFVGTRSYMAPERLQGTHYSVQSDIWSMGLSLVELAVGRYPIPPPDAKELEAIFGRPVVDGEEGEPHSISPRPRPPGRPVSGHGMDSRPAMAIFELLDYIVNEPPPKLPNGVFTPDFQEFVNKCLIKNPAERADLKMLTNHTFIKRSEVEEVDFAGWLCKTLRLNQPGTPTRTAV
Sequence of PIM1 (P11309 whole entry, species assumed): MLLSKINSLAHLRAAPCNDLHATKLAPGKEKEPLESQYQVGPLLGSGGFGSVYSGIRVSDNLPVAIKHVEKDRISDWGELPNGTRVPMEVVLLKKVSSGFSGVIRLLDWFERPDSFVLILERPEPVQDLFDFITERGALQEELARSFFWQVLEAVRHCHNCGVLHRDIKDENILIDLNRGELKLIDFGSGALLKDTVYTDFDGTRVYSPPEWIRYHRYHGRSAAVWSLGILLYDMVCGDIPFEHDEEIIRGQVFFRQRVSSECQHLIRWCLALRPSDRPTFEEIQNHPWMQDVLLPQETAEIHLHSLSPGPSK

Structure (SMILES) | residual kinase activity, MKK2 (MKK2) | residual kinase activity, MKK6 (MKK6) | residual kinase activity, JNK1 (JNK1) | residual kinase activity, p38b MAPK (p38b MAPK) | residual kinase activity, RSK1 (RSK1) | residual kinase activity, PDK1 (PDK1) | residual kinase activity, PKBa (PKBa) | residual kinase activity, S6K1 (S6K1) | residual kinase activity, PKA (PKA) | residual kinase activity, ROCK 2 (ROCK 2) | residual kinase activity, PRK2 (PRK2) | residual kinase activity, PKCa (PKCa) | residual kinase activity, CAMKKb (CAMKKb) | residual kinase activity, PLK1 (PLK1) | residual kinase activity, AMPK (hum) (AMPK (hum)) | residual kinase activity, MELK (MELK) | residual kinase activity, PIM1 (PIM1) | residual kinase activity, RIPK2 (RIPK2) | residual kinase activity, BTK (BTK) | residual kinase activity, EPH-A2 (EPH-A2) | other results
O=C(Nc1nc2ccc(O)cc2s1)c1ccccn1 [Compound 03-12] | 82 | 99 | 105 | 105 | 67 | 88 | 74 | 50 | 97 | 68 | 66 | 101 | 41 | 65 | 90 | 31 | 51 | 29 | 71 | 85 | residual kinase activity, HER4 (HER4): 33; residual kinase activity, IGF-1R (IGF-1R): 54
O=C(Nc1nc2cc(O)ccc2s1)c1ccccn1 [Compound 03-13] | 82 | 105 | 93 | 91 | 70 | 104 | 107 | 71 | 102 | 96 | 97 | 112 | 69 | 96 | 71 | 22 | 39 | 27 | 90 | 81 | residual kinase activity, HER4 (HER4): 98; residual kinase activity, IGF-1R (IGF-1R): 84

— patent publication US10231954B2, “Neurodegenerative therapies” (LYTIX BIOPHARMA AS, priority 2014, dated 2019)
